Source: patent US20150353495A1 (PORTOLA PHARMACEUTICALS, INC., priority 2010, published 2015)

Legend:
Format in all cases: biochemical
JAK1 = target: T1, JAK1 (Homo sapiens, UniProt P23458); experiment: Z'-LYTE kinase assay JAK1
T1 construct: 5 μl of catalytic domain recombinant Kinase enzyme+Tyr peptide substrate (Invitrogen, CA); purchased Invitrogen
How it was run: (§1)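 Catalytic-domain recombinant kinase was incubated with Tyr6 FRET peptide, ATP and compound (1% DMSO final) for 1 h at room temperature. Protease development followed for 1 h, cleaving only non-phosphorylated peptide. Inhibition of phosphorylation was read as coumarin/fluorescein FRET fluorescence.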

JAK2 = target: T2, JAK2 (Homo sapiens, UniProt O60674); experiment: Z'-LYTE kinase assay JAK2
T2 construct: 5 μl of catalytic domain recombinant Kinase enzyme+Tyr peptide substrate (Invitrogen, CA); purchased Invitrogen
How it was run: as §1

JAK3 = target: T3, JAK3 (Homo sapiens, UniProt P52333); experiment: Z'-LYTE kinase assay JAK3
T3 construct: 5 μl of catalytic domain recombinant Kinase enzyme+Tyr peptide substrate (Invitrogen, CA); purchased Invitrogen
How it was run: as §1

T2 sequence (O60674 849-1124 limits assumed): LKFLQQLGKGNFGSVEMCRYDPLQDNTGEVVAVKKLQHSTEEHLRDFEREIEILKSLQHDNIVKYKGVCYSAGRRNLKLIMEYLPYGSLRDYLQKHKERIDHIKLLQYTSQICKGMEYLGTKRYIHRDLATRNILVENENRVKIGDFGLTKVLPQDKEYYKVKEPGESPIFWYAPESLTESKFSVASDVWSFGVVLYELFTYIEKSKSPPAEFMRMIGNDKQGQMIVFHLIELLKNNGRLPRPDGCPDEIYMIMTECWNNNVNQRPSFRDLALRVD
T1 sequence (P23458 875-1153 limits assumed): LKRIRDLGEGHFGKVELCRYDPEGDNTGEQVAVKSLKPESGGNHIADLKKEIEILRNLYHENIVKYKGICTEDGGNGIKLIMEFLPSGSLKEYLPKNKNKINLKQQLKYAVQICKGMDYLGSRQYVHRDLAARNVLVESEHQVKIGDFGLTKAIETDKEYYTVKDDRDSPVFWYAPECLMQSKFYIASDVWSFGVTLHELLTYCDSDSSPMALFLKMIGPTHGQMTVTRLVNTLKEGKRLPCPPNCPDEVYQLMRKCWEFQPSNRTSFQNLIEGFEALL
T3 sequence (P52333 822-1111 limits assumed): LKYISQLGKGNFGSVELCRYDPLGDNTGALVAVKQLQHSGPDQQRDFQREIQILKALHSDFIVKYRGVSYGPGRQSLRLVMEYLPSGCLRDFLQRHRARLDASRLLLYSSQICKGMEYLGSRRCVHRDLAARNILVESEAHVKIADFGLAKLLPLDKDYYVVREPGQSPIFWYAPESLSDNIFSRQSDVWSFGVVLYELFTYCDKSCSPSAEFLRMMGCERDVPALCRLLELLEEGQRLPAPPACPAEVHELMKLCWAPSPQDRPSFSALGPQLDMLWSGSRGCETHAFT

Row | IC50 (JAK1) | IC50 (JAK2) | IC50 (JAK3) | SMILES
1 | > 1000 nM | > 1000 nM | 10 to 100 nM | NC(=O)c1cnc(Nc2ccc(-n3cccn3)cc2)cc1NCc1ccccc1 [Example 277, 6-(4-(1H-pyrazol-1-yl)phenylamino)-4-(benzylamino)nicotinamide]
2 | 100 to 1000 nM | 10 to 100 nM | 1 to 10 nM | NC(=O)c1cnc(Nc2cccc(C3CCNCC3)c2)cc1NCc1ccccc1F [Example 120, 4-(2-fluorobenzylamino)-6-(3-(piperidin-4-yl)phenylamino)nicotinamide]
3 | > 1000 nM | 100 to 1000 nM | 10 to 100 nM | NC(=O)c1cnc(Nc2cccc(Cl)c2)cc1NCc1cncc(F)c1 [Example 307, 6-(3-chlorophenylamino)-4-((5-fluoropyridin-3-yl)methylamino)nicotinamide]
4 | 100 to 1000 nM | 100 to 1000 nM | 10 to 100 nM | CCC(=O)N1CCC(c2ccc(Nc3cc(NC4CCCC4)c(C(N)=O)cn3)cc2)CC1 [Example 147, 4-(cyclopentylamino)-6-(4-(1-propionylpiperidin-4-yl)phenylamino)nicotinamide]
5 | > 1000 nM | > 1000 nM | 100 to 1000 nM | COc1ccc(Nc2cc(NCc3ncccn3)c(C(N)=O)cn2)cc1 [Example 300, 6-(4-methoxyphenylamino)-4-(pyrimidin-2-ylmethylamino)nicotinamide]
6 | > 1000 nM | > 1000 nM | 100 to 1000 nM | NC(=O)c1cnc(Nc2ccc(C3CCOCC3)cc2)cc1NC1CCOCC1 [Example 139, 6-(4-(tetrahydro-2H-pyran-4-yl)phenylamino)-4-(tetrahydro-2H-pyran-4-ylamino)nicotinamide]
7 | > 1000 nM | > 1000 nM | > 1000 nM | COc1ccc(Nc2cc(NCC3CCN(C(C)=O)CC3)c(C(N)=O)cn2)cc1 [Example 35, 4-((1-acetylpiperidin-4-yl)methylamino)-6-(4-methoxyphenylamino)nicotinamide]
8 | > 1000 nM | > 1000 nM | > 1000 nM | CC(=O)N1CCC(CNc2cc(Nc3ccc(C(=O)N4CCC4)cc3)ncc2C(N)=O)CC1 [Example 50, 4-((1-acetylpiperidin-4-yl)methylamino)-6-(4-(azetidine-1-carbonyl)phenylamino)nicotinamide]
9 | > 1000 nM | 100 to 1000 nM | 10 to 100 nM | NC(=O)c1cnc(Nc2ccc(CN3CCOCC3)cc2)cc1NC1(c2ccccc2)CC1 [Example 127, 6-(4-(morpholinomethyl)phenylamino)-4-(1-phenylcyclopropylamino)nicotinamide]
10 | > 1000 nM | > 1000 nM | 10 to 100 nM | CCC(=O)N1CCC[C@H](CNc2cc(Nc3ccc(OC)cc3)ncc2C(N)=O)C1 [Example 271, (R)-6-(4-methoxyphenylamino)-4-((1-propionylpiperidin-3-yl)methylamino)nicotinamide]
11 | > 1000 nM | > 1000 nM | 100 to 1000 nM | NC(=O)c1cnc(Nc2ccc3cccnc3c2)cc1NCc1ccccc1 [Example 87, 4-(benzylamino)-6-(quinolin-7-ylamino)nicotinamide]
12 | 100 to 1000 nM | 100 to 1000 nM | 1 to 10 nM | CN(C)S(=O)(=O)Cc1ccc(Nc2cc(NCc3cccc(-c4ccncc4)c3)c(C(N)=O)cn2)cc1 [Example 417, 6-(4-((N,N-dimethylsulfamoyl)methyl)phenylamino)-4-(3-(pyridine-4-yl)benzylamino)nicotinamide]
13 | 100 to 1000 nM | 10 to 100 nM | 1 to 10 nM | NC(=O)c1cnc(Nc2cccc(C3CCOCC3)c2)cc1NCc1cc(F)ccc1F [Example 207, 4-(2,5-difluorobenzylamino)-6-(3-(tetrahydro-2H-pyran-4-yl)phenylamino)nicotinamide]
14 | 100 to 1000 nM | 10 to 100 nM | 1 to 10 nM | NC(=O)c1cnc(Nc2cccc(C3CCOCC3)c2)cc1NCc1ccccc1F [Example 152, 4-(2-fluorobenzylamino)-6-(3-(tetrahydro-2H-pyran-4-yl)phenylamino)nicotinamide]
15 | 10 to 100 nM | 10 to 100 nM | < 1 nM | CN(C)C(=O)C1CCN(c2ccc(Nc3cc(NCc4cccc5ccsc45)c(C(N)=O)cn3)cc2)CC1 [Example 350, 4-(benzo[b]thiophen-7-ylmethylamino)-6-(4-(4-(dimethylcarbamoyl)piperidin-1-yl)phenylamino)nicotinamide]
16 | > 1000 nM | > 1000 nM | 100 to 1000 nM | CN(C)C(=O)N1CCC(Nc2cc(Nc3ccc(C4CCOCC4)cc3)ncc2C(N)=O)CC1 [Example 163, 4-(1-(dimethylcarbamoyl)piperidin-4-ylamino)-6-(4-(tetrahydro-2H-pyran-4-yl)phenylamino)nicotinamide]

Row | IC50 (JAK1) | IC50 (JAK2) | IC50 (JAK3) | SMILES
17 | > 1000 nM | 100 to 1000 nM | 10 to 100 nM | CCC(=O)N1CCN(c2ccc(Nc3cc(NC4(c5ccccc5)CC4)c(C(N)=O)cn3)cc2)CC1 [Example 124, 4-(1-phenylcyclopropylamino)-6-(4-(4-propionylpiperazin-1-yl)phenylamino)nicotinamide]
18 | 100 to 1000 nM | 100 to 1000 nM | 1 to 10 nM | CN(C)C(=O)c1ccc(Nc2cc(NCc3cccc4c3ccn4C)c(C(N)=O)cn2)cc1 [Example 304, 6-(4-(dimethylcarbamoyl)phenylamino)-4-((1-methyl-1H-indol-4-yl)methylamino)nicotinamide]
19 | > 1000 nM | 100 to 1000 nM | 10 to 100 nM | NC(=O)c1cnc(Nc2ccc(OC(F)F)cc2)cc1NCc1cncc(F)c1 [Example 309, 6-(4-(difluoromethoxy)phenylamino)-4-((5-fluoropyridin-3-yl)methylamino)nicotinamide]
20 | 100 to 1000 nM | 100 to 1000 nM | 1 to 10 nM | CN(C)S(=O)(=O)NCc1ccc(Nc2cc(NCc3cccc4ccsc34)c(C(N)=O)cn2)cc1 [Example 355, 4-(benzo[b]thiophen-7-ylmethylamino)-6-(4-((N,N-dimethylsulfamoylamino)methyl)phenylamino)nicotinamide]
21 | > 1000 nM | 100 to 1000 nM | 10 to 100 nM | COCC(=O)N1CCC[C@H](CNc2cc(Nc3ccc(C(=O)N4CCCC4)cc3)ncc2C(N)=O)C1 [Example 267, (R)-4-((1-(2-methoxyacetyl)piperidin-3-yl)methylamino)-6-(4-(pyrrolidine-1-carbonyl)phenylamino)nicotinamide]
22 | 10 to 100 nM | 10 to 100 nM | 1 to 10 nM | NC(=O)c1cnc(Nc2ccc(N3CCN(c4ccccn4)CC3)cc2)cc1NCc1cccc2[nH]ccc12 [Example 402]
23 | 100 to 1000 nM | 10 to 100 nM | 1 to 10 nM | NC(=O)c1cnc(Nc2ccc(C3CNC3)cc2)cc1NCc1cc(F)ccc1F [Example 213, 6-(4-(azetidin-3-yl)phenylamino)-4-(2,5-difluorobenzylamino)nicotinamide]
24 | 100 to 1000 nM | 10 to 100 nM | 1 to 10 nM | CN(C)C(=O)C1CCN(c2ccc(Nc3cc(NCc4cccc5sccc45)c(C(N)=O)cn3)cc2)CC1 [Example 344, 4-(benzo[b]thiophen-4-ylmethylamino)-6-(4-(4-(dimethylcarbamoyl)piperidin-1-yl)phenylamino)nicotinamide]
25 | 100 to 1000 nM | 100 to 1000 nM | 10 to 100 nM | CC(=O)N1CCN(c2ccc(Nc3cc(N[C@H]4CC[C@@H](O)CC4)c(C(N)=O)cn3)cc2)CC1 [Example 123, 6-(4-(4-acetylpiperazin-1-yl)phenylamino)-4-((cis)-4-hydroxycyclohexylamino)nicotinamide]
26 | 100 to 1000 nM | 100 to 1000 nM | 10 to 100 nM | CCC(=O)N1CCC(c2ccc(Nc3cc(N[C@H](C)C4CC4)c(C(N)=O)cn3)cc2)CC1 [Example 202, (R)-4-(1-cyclopropylethylamino)-6-(4-(1-propionylpiperidin-4-yl)phenylamino)nicotinamide]
27 | 100 to 1000 nM | 10 to 100 nM | 1 to 10 nM | Cc1cc(Nc2cc(NCc3cccc4ccsc34)c(C(N)=O)cn2)ccc1C(=O)N1CCOCC1 [Example 459, 4-(benzo[b]thiophen-7-ylmethylamino)-6-(3-methyl-4-(morpholine-4-carbonyl)phenylamino)nicotinamide]
28 | 100 to 1000 nM | 100 to 1000 nM | 1 to 10 nM | CCC(=O)N(C)c1ccc(Nc2cc(NCc3cccc4ccsc34)c(C(N)=O)cn2)cc1 [Example 466, 4-(benzo[b]thiophen-7-ylmethylamino)-6-(4-(N-methylpropionamido)phenylamino)nicotinamide]
29 | > 1000 nM | 100 to 1000 nM | 1 to 10 nM | CN(C)C(=O)C1CCN(c2ccc(Nc3cc(NCc4cccc(-c5ccncc5)c4)c(C(N)=O)cn3)cc2)CC1 [Example 419, 6-(4-(4-(dimethylcarbamoyl)piperidin-1-yl)phenylamino)-4-(3-(pyridine-4-yl)benzylamino)nicotinamide]
30 | > 1000 nM | 100 to 1000 nM | 10 to 100 nM | CCC(=O)N1CCC(c2ccc(Nc3cc(NCC4CCOCC4)c(C(N)=O)cn3)cc2)CC1 [Example 144, 6-(4-(1-propionylpiperidin-4-yl)phenylamino)-4-((tetrahydro-2H-pyran-4-yl)methylamino)nicotinamide]
31 | > 1000 nM | > 1000 nM | 100 to 1000 nM | COc1ccc(Nc2cc(NC[C@H]3CCCN(C(=O)N(C)C)C3)c(C(N)=O)cn2)cc1 [Example 291, (R)-4-((1-(dimethylcarbamoyl)piperidin-3-yl)methylamino)-6-(4-methoxyphenylamino)nicotinamide]
32 | 1 to 10 nM | 1 to 10 nM | < 1 nM | CS(=O)(=O)Cc1ccc(Nc2cc(NCc3cccc4[nH]ccc34)c(C(N)=O)cn2)cc1 [Example 348, 4-((1H-indol-4-yl)methylamino)-6-(4-(methylsulfonylmethyl)phenylamino)nicotinamide]
